Data from the NIST ThermoML archive (doi:10.1021/je300853z).

Experiments:
[1] = molar heat capacity at constant pressure; settings: 101.33 kPa, Liquid, Small sample (50 mg) DSC
[2] = for mass density / viscosity: 101.33 kPa, Liquid; for mass density: Vibrating tube method

CCCCCCCC[n+]1ccc2ccccc2c1.N#C[S-] [2-octylisoquinolinium thiocyanate]
Settings	mass density, [2] [kg/m3]	molar heat capacity at constant pressure, [1] [J/K/mol]	viscosity, [2] [mPa·s]
278.15 K	–	510	–
283.15 K	–	513	–
288.15 K	1067.27	516	–
293.15 K	1064.44	519	–
298.15 K	1061.69	522	2388
303.15 K	1058.82	525	1612.1
308.15 K	1055.96	528	1109.5
313.15 K	1053.11	531	743.87
318.15 K	1050.26	533	513.78
323.15 K	1047.42	535	365.48
328.15 K	1044.57	537	266.77
333.15 K	1041.72	538	199.26
338.15 K	1038.94	540	152.21
343.15 K	1036.2	540	118.51
348.15 K	1033.47	–	93.83

Settings	Glass transition temperature [°C]
[2], Glass, DTA	-57.0
